These results are taken from paper PMC6576746, “Rational discovery of dual-indication multi-target PDE/Kinase inhibitor for precision anti-cancer therapy using structural systems pharmacology” (PLoS Computational Biology, 2019).

What all share (assay): biochemical
Common to all, as to parameters: DiscoverX KinomeScan competition binding assay across human kinases; per cent of control at 10 and 100 uM

Test [1] has as its target T1, RSK2(Kin.Dom.2-C-terminal) (Homo sapiens, UniProt P51812).
T1 construct: gene RPS6KA3; Kin.Dom.2-C-terminal
The conditions noted are these: competition binding, % of control; read-out: Percent Control (100 uM Levosimendan). The method in brief: (§1)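 Binding is expressed as %control, normalised between positive and negative control signals. The compound (levosimendan) was tested at 10 μM and 100 μM in the DiscoverX KinomeScan competition binding format against human kinases.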

Test [2] concerns the target T2, JAK2(JH1domain-catalytic) (Homo sapiens, UniProt O60674).
T2 construct: JH1domain-catalytic
The conditions noted are these: competition binding, % of control. The method in brief: as §1

The target of test [3] is CAMKK1 (Homo sapiens, UniProt Q8N5S9). The conditions noted are these: competition binding, % of control. Summed up: as §1
CAMKK1, sequence (Q8N5S9 whole entry): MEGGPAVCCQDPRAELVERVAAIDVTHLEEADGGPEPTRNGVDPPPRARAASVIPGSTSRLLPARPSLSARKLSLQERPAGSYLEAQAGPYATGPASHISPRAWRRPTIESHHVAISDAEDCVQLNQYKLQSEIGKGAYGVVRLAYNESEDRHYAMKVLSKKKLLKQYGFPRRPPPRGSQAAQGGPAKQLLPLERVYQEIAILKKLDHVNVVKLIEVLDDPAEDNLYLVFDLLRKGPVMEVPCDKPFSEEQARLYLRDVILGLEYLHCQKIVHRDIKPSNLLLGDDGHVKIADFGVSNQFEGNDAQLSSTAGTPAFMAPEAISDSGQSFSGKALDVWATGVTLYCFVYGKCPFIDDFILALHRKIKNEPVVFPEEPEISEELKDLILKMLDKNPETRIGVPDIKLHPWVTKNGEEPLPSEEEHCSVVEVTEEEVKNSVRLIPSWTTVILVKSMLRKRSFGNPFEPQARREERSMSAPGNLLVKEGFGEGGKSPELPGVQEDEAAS
For test [4], the target named is NEK9 (Homo sapiens, UniProt Q8TD19). The conditions noted are these: competition binding, % of control; read-out: Percent Control (100 uM Levosimendan). The method in brief: as §1
The target in test [5] is T3, DCAMKL3 (Homo sapiens, UniProt Q9C098).
T3 construct: gene DCLK3
The following applies: competition binding, % of control; read-out: Percent Control (100 uM Levosimendan). Summed up:
as §1

Test [6] deals with T4, PRKR (Homo sapiens, UniProt P19525).
T4 construct: gene EIF2AK2
T4 sequence (P19525 whole entry): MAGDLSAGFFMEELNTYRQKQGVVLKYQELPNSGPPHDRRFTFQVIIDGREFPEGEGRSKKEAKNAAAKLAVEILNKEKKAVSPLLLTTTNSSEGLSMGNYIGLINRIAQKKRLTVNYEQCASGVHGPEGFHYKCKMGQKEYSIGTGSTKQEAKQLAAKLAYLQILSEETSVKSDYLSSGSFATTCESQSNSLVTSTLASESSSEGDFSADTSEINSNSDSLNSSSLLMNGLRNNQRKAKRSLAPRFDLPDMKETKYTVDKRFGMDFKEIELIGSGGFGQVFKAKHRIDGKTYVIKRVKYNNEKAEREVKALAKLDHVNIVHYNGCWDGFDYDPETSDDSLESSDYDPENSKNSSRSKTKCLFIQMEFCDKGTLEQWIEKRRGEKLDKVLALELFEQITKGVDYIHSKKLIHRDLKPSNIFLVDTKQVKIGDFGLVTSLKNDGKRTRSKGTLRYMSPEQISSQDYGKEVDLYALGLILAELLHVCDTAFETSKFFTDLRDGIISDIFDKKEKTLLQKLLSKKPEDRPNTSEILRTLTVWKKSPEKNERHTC
The conditions noted are these: competition binding, % of control; read-out: Percent Control (100 uM Levosimendan). Summed up: as §1

In test [7] the target is T5, PFTAIRE2 (Homo sapiens, UniProt Q96Q40).
T5 construct: gene CDK15
The conditions noted are these: competition binding, % of control; read-out: Percent Control (100 uM Levosimendan). Summed up:
as §1

Test [8] concerns the target WEE2 (Homo sapiens, UniProt P0C1S8). The following applies: competition binding, % of control; read-out: Percent Control (100 uM Levosimendan). Summed up:
as §1

The target in test [9] is MET(Y1235D) (Homo sapiens, UniProt P08581, Y1235D). The conditions noted are these: competition binding, % of control; read-out: Percent Control (100 uM Levosimendan). Summed up: as §1
The target in test [10] is WEE1 (Homo sapiens, UniProt P30291). The conditions noted are these: competition binding, % of control; read-out: Percent Control (100 uM Levosimendan). Summed up:
as §1

Test [11] deals with T6, ERK8 (Homo sapiens, UniProt Q8TD08).
T6 construct: gene MAPK15
The following applies: competition binding, % of control; read-out: Percent Control (100 uM Levosimendan). Summed up:
as §1

The target of test [12] is T7, DCAMKL1 (Homo sapiens, UniProt O15075).
T7 construct: gene DCLK1
The conditions noted are these: competition binding, % of control; read-out: Percent Control (100 uM Levosimendan). Summed up:
as §1

Test [13] deals with T8, ASK2 (Homo sapiens, UniProt O95382).
T8 construct: gene MAP3K6
The following applies: competition binding, % of control; read-out: Percent Control (100 uM Levosimendan). Summed up: as §1

Test [14] has as its target RIPK2 (Homo sapiens, UniProt O43353). The conditions noted are these: competition binding, % of control; read-out: Percent Control (100 uM Levosimendan). Summed up:
as §1

Test [15] addresses T9, PAK7 (Homo sapiens, UniProt Q9P286).
T9 construct: gene PAK5
The conditions noted are these: competition binding, % of control; read-out: Percent Control (100 uM Levosimendan). The method in brief:
as §1

In test [16] the target is T10, JAK3(JH1domain-catalytic) (Homo sapiens, UniProt P52333).
T10 construct: JH1domain-catalytic
T10 sequence (P52333 whole entry): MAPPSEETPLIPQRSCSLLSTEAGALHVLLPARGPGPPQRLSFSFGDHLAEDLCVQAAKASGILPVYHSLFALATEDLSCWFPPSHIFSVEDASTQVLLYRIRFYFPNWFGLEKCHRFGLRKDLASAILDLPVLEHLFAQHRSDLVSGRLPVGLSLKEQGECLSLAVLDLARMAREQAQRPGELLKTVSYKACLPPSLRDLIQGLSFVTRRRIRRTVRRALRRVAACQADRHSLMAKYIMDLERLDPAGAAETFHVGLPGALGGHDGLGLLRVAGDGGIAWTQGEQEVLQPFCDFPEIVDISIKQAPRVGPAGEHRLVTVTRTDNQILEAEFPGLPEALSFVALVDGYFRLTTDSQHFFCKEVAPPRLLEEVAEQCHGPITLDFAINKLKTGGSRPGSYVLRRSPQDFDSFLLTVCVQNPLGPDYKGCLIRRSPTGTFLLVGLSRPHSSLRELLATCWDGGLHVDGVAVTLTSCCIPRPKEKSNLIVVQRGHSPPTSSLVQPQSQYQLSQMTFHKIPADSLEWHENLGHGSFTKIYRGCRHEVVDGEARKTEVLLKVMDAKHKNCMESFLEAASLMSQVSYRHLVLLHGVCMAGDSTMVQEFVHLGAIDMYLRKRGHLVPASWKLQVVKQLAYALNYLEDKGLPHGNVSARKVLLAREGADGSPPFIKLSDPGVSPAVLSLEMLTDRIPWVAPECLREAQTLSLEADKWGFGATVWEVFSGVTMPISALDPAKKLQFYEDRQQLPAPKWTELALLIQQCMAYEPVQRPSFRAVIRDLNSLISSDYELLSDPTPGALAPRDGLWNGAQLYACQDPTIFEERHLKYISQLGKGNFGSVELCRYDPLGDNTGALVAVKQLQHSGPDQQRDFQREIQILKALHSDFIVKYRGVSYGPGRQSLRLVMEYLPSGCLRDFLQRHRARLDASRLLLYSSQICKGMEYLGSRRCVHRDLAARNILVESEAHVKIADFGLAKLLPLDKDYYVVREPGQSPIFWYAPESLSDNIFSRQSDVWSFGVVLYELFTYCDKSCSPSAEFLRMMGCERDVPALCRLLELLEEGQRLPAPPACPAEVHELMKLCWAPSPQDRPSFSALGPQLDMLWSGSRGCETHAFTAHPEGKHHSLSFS
The conditions noted are these: competition binding, % of control; read-out: Percent Control (100 uM Levosimendan). The method in brief:
as §1

Test [17] has as its target T11, MRCKB (Homo sapiens, UniProt Q9Y5S2).
T11 construct: gene CDC42BPB
The following applies: competition binding, % of control; read-out: Percent Control (100 uM Levosimendan). The method in brief:
as §1

For test [18], the target named is T12, RSK2(Kin.Dom.1-N-terminal) (Homo sapiens, UniProt P51812).
T12 construct: gene RPS6KA3; Kin.Dom.1-N-terminal
T12 sequence (P51812 whole entry): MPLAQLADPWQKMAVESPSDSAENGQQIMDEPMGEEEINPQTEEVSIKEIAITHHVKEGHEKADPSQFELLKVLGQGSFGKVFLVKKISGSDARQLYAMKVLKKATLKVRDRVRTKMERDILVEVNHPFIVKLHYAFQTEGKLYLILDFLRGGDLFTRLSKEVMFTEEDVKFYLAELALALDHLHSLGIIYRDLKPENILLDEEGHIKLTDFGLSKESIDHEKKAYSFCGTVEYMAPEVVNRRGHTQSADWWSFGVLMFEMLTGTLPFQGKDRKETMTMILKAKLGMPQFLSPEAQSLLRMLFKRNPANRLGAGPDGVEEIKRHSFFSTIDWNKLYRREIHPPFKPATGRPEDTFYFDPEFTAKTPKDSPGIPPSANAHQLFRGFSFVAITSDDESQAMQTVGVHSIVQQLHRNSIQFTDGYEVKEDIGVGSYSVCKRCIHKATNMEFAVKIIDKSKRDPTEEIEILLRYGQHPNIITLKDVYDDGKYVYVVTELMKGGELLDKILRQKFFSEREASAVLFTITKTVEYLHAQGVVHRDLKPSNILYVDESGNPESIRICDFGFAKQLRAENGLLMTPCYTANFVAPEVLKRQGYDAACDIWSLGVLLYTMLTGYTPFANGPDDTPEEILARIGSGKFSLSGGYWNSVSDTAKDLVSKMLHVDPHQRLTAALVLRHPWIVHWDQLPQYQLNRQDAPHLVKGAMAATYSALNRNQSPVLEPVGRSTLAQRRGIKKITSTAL
The following applies: competition binding, % of control. Summed up:
as §1

Setting [19] is: read-out: Percent Control (10 uM Levosimendan).
Where [20] appears, read: read-out: Percent Control (100 uM Levosimendan).

T2 sequence (O60674 whole entry): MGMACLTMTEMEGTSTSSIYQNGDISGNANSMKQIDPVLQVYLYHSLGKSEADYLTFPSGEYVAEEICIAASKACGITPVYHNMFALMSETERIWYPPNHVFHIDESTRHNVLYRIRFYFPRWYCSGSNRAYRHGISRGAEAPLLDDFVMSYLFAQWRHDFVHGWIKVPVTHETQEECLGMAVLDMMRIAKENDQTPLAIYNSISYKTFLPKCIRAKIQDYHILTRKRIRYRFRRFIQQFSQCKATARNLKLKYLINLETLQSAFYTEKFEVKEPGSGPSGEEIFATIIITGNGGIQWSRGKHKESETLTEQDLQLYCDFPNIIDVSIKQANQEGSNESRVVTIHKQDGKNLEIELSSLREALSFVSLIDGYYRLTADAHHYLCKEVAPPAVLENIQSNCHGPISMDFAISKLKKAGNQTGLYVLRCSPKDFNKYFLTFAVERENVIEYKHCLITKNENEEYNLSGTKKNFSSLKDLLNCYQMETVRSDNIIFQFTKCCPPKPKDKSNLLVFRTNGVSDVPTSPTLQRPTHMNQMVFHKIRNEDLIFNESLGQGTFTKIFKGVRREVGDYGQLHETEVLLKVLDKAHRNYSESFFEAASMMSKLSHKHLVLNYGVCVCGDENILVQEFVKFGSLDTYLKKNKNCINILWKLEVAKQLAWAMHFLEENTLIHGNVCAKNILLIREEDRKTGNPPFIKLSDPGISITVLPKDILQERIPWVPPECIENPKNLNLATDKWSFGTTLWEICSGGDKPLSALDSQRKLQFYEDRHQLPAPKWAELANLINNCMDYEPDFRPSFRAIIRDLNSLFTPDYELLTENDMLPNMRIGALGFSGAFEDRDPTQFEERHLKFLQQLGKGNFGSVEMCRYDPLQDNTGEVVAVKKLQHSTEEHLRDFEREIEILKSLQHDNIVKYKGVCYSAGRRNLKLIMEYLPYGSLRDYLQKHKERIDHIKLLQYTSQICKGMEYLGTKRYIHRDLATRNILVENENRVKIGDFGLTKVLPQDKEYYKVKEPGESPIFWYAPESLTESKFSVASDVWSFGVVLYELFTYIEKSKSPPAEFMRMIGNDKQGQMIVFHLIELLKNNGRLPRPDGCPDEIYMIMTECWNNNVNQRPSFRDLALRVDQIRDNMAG
WEE2, sequence (P0C1S8 whole entry): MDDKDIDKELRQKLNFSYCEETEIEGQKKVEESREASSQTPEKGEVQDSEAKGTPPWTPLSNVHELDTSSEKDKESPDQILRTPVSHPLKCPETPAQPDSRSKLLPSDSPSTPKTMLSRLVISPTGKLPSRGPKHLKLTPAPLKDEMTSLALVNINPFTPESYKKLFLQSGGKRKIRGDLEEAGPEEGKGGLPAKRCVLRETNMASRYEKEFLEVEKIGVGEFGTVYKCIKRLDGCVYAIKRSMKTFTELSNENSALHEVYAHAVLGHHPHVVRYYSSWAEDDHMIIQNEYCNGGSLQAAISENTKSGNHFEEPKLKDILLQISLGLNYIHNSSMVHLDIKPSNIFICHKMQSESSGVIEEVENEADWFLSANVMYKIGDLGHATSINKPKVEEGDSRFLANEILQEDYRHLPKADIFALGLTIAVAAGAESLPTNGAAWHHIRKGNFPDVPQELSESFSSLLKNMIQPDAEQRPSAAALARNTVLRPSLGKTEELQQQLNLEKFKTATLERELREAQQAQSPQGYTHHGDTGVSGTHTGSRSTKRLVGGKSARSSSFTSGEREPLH
T1 sequence (P51812 whole entry): as the sequence (P51812 whole entry) above

As for `C[C@@H]1CC(=O)NN=C1c1ccc(NN=C(C#N)C#N)cc1` [levosimendan], the remaining binding at 100 µM is 66% in [1]; 49% in [2] (setting [20]); 51% in test [3] (setting [20]); 56% in test [4]; 100% in test [5]; 96% in [6]. The remaining binding at 100 µM in test [7] turned out to be 85%; in test [8], 76%; in test [9] it was 57%; in [10] it was 100%; in test [11], 100%; in test [12], 67%. In addition, the remaining binding at 100 µM was 80% in [13]; 91% in [14]; 79% in [15]; 75% in test [16]; 74% in test [17]; 35% in test [18] (setting [20]). The values for the remaining binding at 10 µM in test [2] (setting [19]), in test [3] (setting [19]) and in test [18] (setting [19]) were 88%, 82% and 85%, respectively.
